Consider 4 compounds from publication PMC9364801, “APOBEC3 selects V179I in HIV-1 reverse transcriptase to provide selective advantage for non-nucleoside reverse transcriptase inhibitor-resistant mutants” (Frontiers in virology, 2022).

Each structure is given as a SMILES string.

What all share (details): TZM-bl cells, MOI 0.02, 48 h; virus infectivity read-out; NNRTI pocket
In experiment [1] the target is T1, HIV-1 reverse transcriptase (RT), HIV-1NL4-3 (Human immunodeficiency virus type 1 (NEW YORK-5 ISOLATE), UniProt P12497). Further details: gene gag-pol.
Experiment [2] has as its target T1, HIV-1 reverse transcriptase (RT), HIV-1NL4-3. As to the kind of experiment: single-cycle pseudovirus infection, luciferase. On the set-up: gene gag-pol; mature RT p66/p51 heterodimer cut from Gag-Pol polyprotein; […]; tested in TZM-bl cells. The format is cell-based.
Experiment [3] shares this target. Briefly: single-cycle pseudovirus infection, luciferase. The format is cell-based. On the set-up: gene gag-pol; mature RT p66/p51 heterodimer cut from Gag-Pol polyprotein; […]; tested in TZM-bl cells. This is another data set of the same source.
Experiment [4] has the same target. As to the kind of experiment: single-cycle pseudovirus infection, luciferase. The format is cell-based. On the set-up: gene gag-pol; mature RT p66/p51 heterodimer cut from Gag-Pol polyprotein; […]; tested in TZM-bl cells. This is another data set of the same source.

`O=C1Nc2ccc(Cl)cc2[C@@](C#CC2CC2)(C(F)(F)F)O1` [EFV, efavirenz]: in experiment [1], the “EFV EC50” value is given as 0.65 ± 0.30 nM.

Regarding `Cn1c(Cn2ccc(C(F)(F)F)c(Oc3cc(Cl)cc(C#N)c3)c2=O)n[nH]c1=O` [DOR, doravirine], the “DOR EC50” value in experiment [2] is on record as 1.4 ± 0.28 nM.

In the case of `Cc1cc(C)c(Nc2ccnc(Nc3ccc(C#N)cc3)n2)c(C)c1` [DAP, dapivirine], in experiment [3], the “DAP EC50” value is on record as 0.26 ± 0.13 nM.

With `Cc1cc(C#N)cc(C)c1Oc1nc(Nc2ccc(C#N)cc2)nc(N)c1Br` [ETR, etravirine], the “ETR EC50” value in experiment [4] turned out to be 0.83 ± 0.23 nM.
